We go through five compounds from patent US20040009243A1, “Cancer preventive composition comprising ginsenoside glycosides of red ginseng” (priority 2002, published 2004).

Entries after “also recorded” stand apart in the source; their conditions may differ. Where two headings read alike, the source gives them in different places.

In one data set the test system is male ICR mice. The data set is described as follows: acute toxicity test (Experiment 2). The class given is in vivo. Conditions: for autopsy examination, macroscopic (in words) / dead animals (in words): 1000 mg/kg oral, once; for autopsy examination, macroscopic (in words): 14th day after administration; for dead animals (in words): observed for 14 days; for acute toxicity / toxicity (in words): mice, oral route, 1000 mg/kg. The procedure:
20 male ICR mice weighing 26-30 grams were used in each test group to conduct the acute toxicity test of ginsenosides Rg3, Rg5 and Rh2. Specifically, each of ginsenosides Rg3, Rg5 and Rh2 was prepared in 0.5% Tween 80 as the solvent to the concentration of 100 mg/ml and then orally administered to mice once in an amount of 0.2 ml per 20 grams of body weight. The control group was given only 0.5% Tween 80 solvent via oral route. […] Further, on 14th day after administration the animals were sacrificed and then autopsied to examine macroscopically the main organs.

The subject of data set [1] is lung adenoma induced by benzo(a)pyrene. The data set is described as follows: 9-weeks medium-term anticarcinogenicity test of ginsenosides (Experiment 1). It counts as in vivo, NIH(GP) mice. Conditions: for incidence of lung adenoma on the average: BP 0.5 mg plus ginsenoside; for incidence of lung adenoma on the average / Incidence (lung adenoma), treatment alone without BP: sacrifice 9th week; for incidence of lung adenoma on the average / Incidence, number of mice with lung adenoma / Incidence, value in parentheses (percent of mice with lung adenoma) / Multiplicity (Mean ± S.D.): BP line = carcinogen alone; for Incidence, number of mice with lung adenoma / Incidence, value in parentheses (percent of mice with lung adenoma) / Multiplicity (Mean ± S.D.): BP 0.5 mg/head + ginsenoside 80 μg/ml; for Incidence (lung adenoma), treatment alone without BP: red ginseng extract 2 mg/ml, ginsenosides 80 μg/ml in drinking water, 6 weeks; for lung adenoma in groups treated singularly, without BP (in words): treatment alone, 9 weeks. From the text:
1) Experimental animal: In this experiment newborn non-inbred strain NIH(GP) mice were used. Each experimental animal was in a breeding chamber maintained at constant temperature and humidity and, after weaning, given a solid feed prepared according to the NIH-7 open formula. The experimental animals were allowed to freely take drinking water and diet.
2) Establishment of the test groups: The test groups were a total of 10 groups including the normal control group, the ginsenoside Rg3 treatment group, the ginsenoside Rg5 group, the ginsenoside Rh1 group, the ginsenoside Rh2 group, the BP 0.5 mg group, the BP plus ginsenoside Rg3 group, the BP plus ginsenoside Rg5 group, the BP plus ginsenoside Rh1 group, and the BP plus ginsenoside Rh2 group, wherein 25 to 30 newborn mouse, female and male respectively, were used in each group.
3) Chemical carcinogen: As the chemical carcinogen, benzo(a)pyrene (BP: Sigma Chemical Co.) was used. The given amount of BP was suspended in 1% aqueous gelatin solution and then injected subcutaneously in the subscapular region once in an amount of 0.02 cc (0.5 mg).
4) Administration of respective ginsenosides: Respective ginsenosides, i.e. ginsenoside Rg3, ginsenoside Rg5, ginsenoside Rh1 and ginsenoside Rh2 were suspended in drinking water to 80 μg/ml and daily administered from the 3rd week to 9 th week after birth, i.e. during the period of 6 weeks.
5) Monitoring and sacrifice of experimental animals: The appearance of mice was monitored every time at which the feed and drinking water were changed, beginning from weaning at the 3th week after birth. Mice were weighed at intervals of one week and sacrificed at the 9th week after birth and then subjected to autopsy.
6) Pathological investigation: Immediately after autopsy, lungs were exposed to observe the presence or absence of nodules of lung adenoma, and at the same time, to observe the presence or absence of any lesion in respective main organs by the naked eye. Then lungs were fixed in Tellyesniczky solution and the other main organs were fixed in 10% neutral formalin solution, cut and then examined with a microscope. After fixing of lungs, nodules of long adenoma were counted by the naked eye. Then lungs were cut as in case of other main organs, stained with hematoxylin-eosin and then investigated to find nodules of lung adenoma.
7) Statistical treatment: The comparisons of the calculated lung adenoma incidence in respective test groups were made using the Chi-square test and the comparisons of multiplicity were made using Student's t test to obtain P-value.

Data set [2] has as its system mouse pulmonary adenoma induced by benzo(a)pyrene. Conditions: BP + ginseng of given age, BP line = carcinogen alone, cited from earlier work.

`CC(C)=CCC[C@](C)(O)[C@H]1CC[C@]2(C)[C@@H]1[C@H](O)C[C@@H]1[C@@]3(C)CC[C@H](O[C@@H]4O[C@H](CO)[C@@H](O)[C@H](O)[C@H]4O)C(C)(C)[C@@H]3CC[C@]12C` [Ginsenoside Rh2, ginsenoside Rh2]: in the data set with male ICR mice, the “autopsy examination, macroscopic (in words)” value (shortened to “autopsy examination”) was “no special pathological finding”; the “dead animals (in words)” value is on record as “no dead animal was observed”; the “acute toxicity / toxicity (in words)” value was “did not exhibit any acute toxicity; also recorded: have no toxicity”. Also, in data set [1], the “incidence of lung adenoma on the average” value is reported as 48.3% and the “lung adenoma in groups treated singularly, without BP (in words)” value (from here on “lung adenoma … without BP (in words)”) was “did never occur lung adenoma”. Besides, in data set [1] (Sex F), the “Incidence, number of mice with lung adenoma” value (“Incidence, number of mice” for short) stood at 16; the “Incidence, value in parentheses (percent of mice with lung adenoma)” value is listed as 53.3; the “Multiplicity (Mean ± S.D.)” value worked out at 1.53 ± 1.93; the “Incidence (lung adenoma), treatment alone without BP” value stood at 0. Besides, in data set [1] (Sex M + F), the “Incidence, number of mice” value is 29; the “Incidence, value in parentheses (percent of mice with lung adenoma)” value is 48.3; the “Multiplicity (Mean ± S.D.)” value amounted to 1.15 ± 1.61; the “Incidence (lung adenoma), treatment alone without BP” value is reported as 0. Further, in data set [1] (Sex M), the “Incidence, number of mice” value is 13; the “Incidence, value in parentheses (percent of mice with lung adenoma)” value is on record as 43.3; the “Multiplicity (Mean ± S.D.)” value was determined as 0.77 ± 1.14; the “Incidence (lung adenoma), treatment alone without BP” value is listed as 0.
Consider `CC(C)=CC/C=C(\C)[C@H]1CC[C@]2(C)[C@@H]1[C@H](O)C[C@@H]1[C@@]3(C)CC[C@H](O[C@@H]4O[C@H](CO)[C@@H](O)[C@H](O)[C@H]4O[C@@H]4O[C@H](CO)[C@@H](O)[C@H](O)[C@H]4O)C(C)(C)[C@@H]3CC[C@]12C` [Ginsenoside Rg5, ginsenoside Rg5], for which, in the data set with male ICR mice, the “autopsy examination” value is listed as “no special pathological finding”; the “dead animals (in words)” value is “no dead animal was observed”; the “acute toxicity / toxicity (in words)” value is given as “did not exhibit any acute toxicity; also recorded: have no toxicity”. In addition, in data set [1], the “incidence of lung adenoma on the average” value was found to be 45.0% and the “lung adenoma … without BP (in words)” value is listed as “did never occur lung adenoma”. In data set [1] (Sex F), the “Incidence, number of mice” value is listed as 14; the “Incidence, value in parentheses (percent of mice with lung adenoma)” value was 46.7; the “Multiplicity (Mean ± S.D.)” value is 1.33 ± 2.89; the “Incidence (lung adenoma), treatment alone without BP” value came out at 0. In data set [1] (Sex M + F), the “Incidence, number of mice” value is 27; the “Incidence, value in parentheses (percent of mice with lung adenoma)” value was found to be 45.0; the “Multiplicity (Mean ± S.D.)” value was 1.08 ± 2.21; the “Incidence (lung adenoma), treatment alone without BP” value amounted to 0. Moreover, in data set [1] (Sex M), the “Incidence, number of mice” value is recorded as 13; the “Incidence, value in parentheses (percent of mice with lung adenoma)” value was found to be 43.3; the “Multiplicity (Mean ± S.D.)” value worked out at 0.83 ± 1.21; the “Incidence (lung adenoma), treatment alone without BP” value is listed as 0.
For `CC(C)=CCC[C@](C)(O)[C@H]1CC[C@]2(C)[C@@H]1[C@H](O)C[C@@H]1[C@@]3(C)CC[C@H](O)C(C)(C)[C@@H]3[C@@H](O[C@@H]3O[C@H](CO)[C@@H](O)[C@H](O)[C@H]3O)C[C@]12C` [Ginsenoside Rh1, ginsenoside Rh1, reference compound], the “Incidence, number of mice” value in data set [1] (Sex F) stood at 16; in data set [1] (Sex M + F), 31; in data set [1] (Sex M), 15. Also, the “Incidence, value in parentheses (percent of mice with lung adenoma)” value amounted to 53.3 in data set [1] (Sex F), 51.7 in data set [1] (Sex M + F) and 50.0 in data set [1] (Sex M). The “Multiplicity (Mean ± S.D.)” value in data set [1] (Sex F) worked out at 1.49 ± 1.86; in data set [1] (Sex M + F), 1.03 ± 1.27; in data set [1] (Sex M), 1.20 ± 1.54. In data set [1], the “lung adenoma … without BP (in words)” value is on record as “did never occur lung adenoma”.
As to `c1ccc2c(c1)cc1ccc3cccc4ccc2c1c34` [Benzo(a)pyrene (BP), benzo(a)pyrene, reference compound], the “Incidence of lung adenoma” value in data set [2] (Fresh ginseng Extract series) is reported as 63.9; in data set [2] (Fresh ginseng Powder series), 41.3; in data set [2] (Red ginseng Extract series), 47.5; in data set [2] (Red ginseng powder series), 48.6; in data set [2] (White ginseng Powder series), 45.0; in data set [2] (White ginseng extract series), 41.3. Also, the “incidence of lung adenoma on the average” value in data set [1] worked out at 60%. Also, the figures for the “Incidence, number of mice” value in data set [1] (Sex F), in data set [1] (Sex M + F) and in data set [1] (Sex M) were 16, 30 and 14, respectively. Also, the “Incidence, value in parentheses (percent of mice with lung adenoma)” value in data set [1] (Sex F) was 64.0; in data set [1] (Sex M + F) it was 60.0; in data set [1] (Sex M), 56.0. The figures for the “Multiplicity (Mean ± S.D.)” value in data set [1] (Sex F), in data set [1] (Sex M + F) and in data set [1] (Sex M) were 1.80 ± 2.12, 1.50 ± 1.82 and 1.20 ± 1.44, respectively.
On to `CC(C)=CCC[C@](C)(O)[C@H]1CC[C@]2(C)[C@@H]1[C@H](O)C[C@@H]1[C@@]3(C)CC[C@H](O[C@@H]4O[C@H](CO)[C@@H](O)[C@H](O)[C@H]4O[C@@H]4O[C@H](CO)[C@@H](O)[C@H](O)[C@H]4O)C(C)(C)[C@@H]3CC[C@]12C` [Ginsenoside Rg3, ginsenoside Rg3], for which, in the data set on male ICR mice, the “autopsy examination” value was “no special pathological finding”; the “dead animals (in words)” value is “no dead animal was observed”; the “acute toxicity / toxicity (in words)” value is on record as “did not exhibit any acute toxicity; also recorded: have no toxicity”. For the same compound, in data set [1], the “incidence of lung adenoma on the average” value is listed as 46.7% and the “lung adenoma … without BP (in words)” value is on record as “did never occur lung adenoma”. Also, in data set [1] (Sex F), the “Incidence, number of mice” value is 15; the “Incidence, value in parentheses (percent of mice with lung adenoma)” value is on record as 50.0; the “Multiplicity (Mean ± S.D.)” value was determined as 1.03 ± 1.27; the “Incidence (lung adenoma), treatment alone without BP” value was determined as 0. For the same compound, in data set [1] (Sex M + F), the “Incidence, number of mice” value was found to be 28; the “Incidence, value in parentheses (percent of mice with lung adenoma)” value came out at 46.7; the “Multiplicity (Mean ± S.D.)” value turned out to be 0.85 ± 1.13; the “Incidence (lung adenoma), treatment alone without BP” value amounted to 0. Moreover, in data set [1] (Sex M), the “Incidence, number of mice” value stood at 13; the “Incidence, value in parentheses (percent of mice with lung adenoma)” value stood at 43.3; the “Multiplicity (Mean ± S.D.)” value came out at 0.67 ± 0.96; the “Incidence (lung adenoma), treatment alone without BP” value is reported as 0.
